Measurements taken from PubChem BioAssay (NCI).
Values joined by “and” are separate entries in the source; they are usually repeats but may differ in a detail not shown here. Equal entries are not always repeated.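 Five compound concentrations were applied to cells in 96-well plates for 48 hours; endpoints were derived by simple linear interpolation of the resulting dose-response curve. Here, GI50 denotes the concentration required for 50% inhibition of growth. At the TGI there is no net growth.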

Tests used:
Assay in all cases: DTP human tumour cell line panel, 48 h
MDA-N = test system: MDA-N
MDA-MB-435 = test system: MDA-MB-435
T-47D breast = test system: T-47D breast
HOP-18 NSCLC = test system: HOP-18 NSCLC
LXFL 529 NSCLC = test system: LXFL 529 NSCLC
SNB-78 CNS = test system: SNB-78 CNS
KM20L2 colon = test system: KM20L2 colon
DMS 273 small cell lung = test system: DMS 273 small cell lung
RXF-631 renal = test system: RXF-631 renal

Compound	GI50 (MDA-MB-435)	TGI (MDA-MB-435)	GI50 (T-47D breast)	TGI (T-47D breast)	further results
CCCC(=O)Nc1ncnc2c1ncn2C1OC2COP(=O)(O)OC2C1OC(=O)CCC (centres undefined)	> 1000 µM	> 1000 µM	> 1000 µM	> 1000 µM	GI50 (MDA-N): > 1000 µM; TGI (MDA-N): > 1000 µM
CCCCCCCCCCCCCC(=O)OC1C(CO)OC(=O)C1O (centres undefined)	–	–	–	–	TGI (HOP-18 NSCLC): > 100 µM; TGI (LXFL 529 NSCLC): > 100 µM; TGI (SNB-78 CNS): > 100 µM; TGI (KM20L2 colon): > 100 µM; TGI (DMS 273 small cell lung): > 100 µM
Cc1cc(O)c(O)c(Oc2cc(C)cc(O)c2O)c1	–	> 100 µM	–	84.9 µM	TGI (MDA-N): > 100 µM
CNc1ccc(C(=O)CC(O)CCC(C)C2OC(=O)CC(O)CC(=O)CC(O)CC(O)CC(O)CC(O)CC3(O)CC(O)C(C(=O)NCCc4ccccn4)C(CC(OC4OC(C)C(O)C(N)C4O)/C=C/C=C/C=C/C=C\C=C/C=C/C=C/C2C)O3)cc1 (centres undefined)	0.128 µM	0.406 µM	1.26 µM	> 50 µM	–
O=C1C(Cl)=C(Nc2cccc(O)c2)C(=O)N1c1ccc(Cl)cc1Cl	30.7 µM	> 100 µM	43.6 µM	> 100 µM	–
C(=C\c1nc2ccccc2s1)/c1ccc(N2CCOCC2)s1	> 100 µM	> 100 µM	71 µM	> 100 µM	–
COc1cccc(N2C(=O)[C@H]3[C@H]4CC(C(C)(C)C)CC[C@H]4c4c([nH]c5ccccc45)[C@H]3C2=O)c1 (some centres undefined)	–	–	–	–	TGI (RXF-631 renal): 33.2 µM; TGI (LXFL 529 NSCLC): 42.3 µM; TGI (SNB-78 CNS): 35.3 µM; TGI (DMS 273 small cell lung): 36.8 µM
CC(=O)OC1CC(C)c2c(Cl)ncnc21 (centres undefined)	> 100 µM	> 100 µM	> 100 µM	> 100 µM	–
COc1ccc(CCN2COc3ccc4ccc(=O)oc4c3C2)cc1OC	–	> 100 µM	–	> 100 µM	TGI (MDA-N): > 100 µM
COc1ccc(OC)c(-c2cc(C(=O)O)c3cc4ccccc4cc3n2)c1	–	> 100 µM	–	> 100 µM	TGI (MDA-N): > 100 µM
CNC(=O)OCc1cc2ccncc2c2c1[nH]c1ccccc12	–	–	–	–	TGI (HOP-18 NSCLC): > 100 µM; TGI (LXFL 529 NSCLC): > 100 µM; TGI (SNB-78 CNS): > 100 µM; TGI (KM20L2 colon): > 100 µM; TGI (DMS 273 small cell lung): > 100 µM
CCC[CH2][Ge]([CH2]CCC)([CH2]CCC)[O]C(=O)C(OC(C)=O)c1ccccc1 (centres undefined)	–	–	–	–	GI50 (HOP-18 NSCLC): 16.2 µM; TGI (HOP-18 NSCLC): 43.8 µM; GI50 (LXFL 529 NSCLC): 1.31 µM; TGI (LXFL 529 NSCLC): 21 µM; GI50 (SNB-78 CNS): 2.99 µM; TGI (SNB-78 CNS): 24.7 µM; GI50 (KM20L2 colon): 0.652 µM; TGI (KM20L2 colon): 15.2 µM; GI50 (DMS 273 small cell lung): 5.84 µM; TGI (DMS 273 small cell lung): > 37 µM
CS(=O)(=O)c1ccc(-c2[nH]c3ccc(F)cc3c2/C=N/NC(N)=S)cc1	–	–	12.3 µM	85 µM	–
COc1ccc2cc(C(=O)/C=C/c3ccco3)ccc2c1	34.2 µM	> 100 µM	> 100 µM	> 100 µM	–
N#Cc1nc(Nc2ccc(Cl)cc2)sc1N	–	–	–	–	TGI (HOP-18 NSCLC): > 100 µM; TGI (LXFL 529 NSCLC): 22.7 µM; TGI (SNB-78 CNS): > 100 µM; TGI (KM20L2 colon): > 52 µM; TGI (DMS 273 small cell lung): > 63.8 µM
O=c1cc(-c2ccccc2)nc2cc(-c3ccco3)[nH]n12	1.97 µM	5.67 µM	4.44 µM	> 100 µM	–
COC(=O)c1cc(NC(=O)CN(CCN(CC(=O)O)CC(=O)Nc2ccc(O)c(C(=O)OC)c2)CC(=O)O)ccc1O	> 100 µM	> 100 µM	32.7 µM	> 100 µM	–
CO[C@]12CCC(=O)N1C=Cc1c2[nH]c2ccccc12	–	–	–	–	TGI (HOP-18 NSCLC): > 100 µM; TGI (LXFL 529 NSCLC): > 100 µM; TGI (SNB-78 CNS): > 100 µM

Compound	GI50 (MDA-MB-435)	TGI (MDA-MB-435)	GI50 (T-47D breast)	TGI (T-47D breast)	further results
Cc1nc2sc(C(=O)Nc3cccc(Cl)c3C)c(N)c2cc1C(=O)c1ccccc1	0.0988 µM	0.257 µM	0.245 µM	> 50 µM	–
Cc1cc2c(=O)c3ccccc3oc2c(C#N)c1C	–	–	–	> 100 µM	TGI (MDA-N): > 100 µM
O=C(Nc1cccc(-n2cc(-c3ccncc3)c(-c3ccc(O)c(Cl)c3)n2)c1)c1ccc(N2CCOCC2)c(C(F)(F)F)c1	5 µM	> 50 µM	2.99 µM	> 50 µM	–
Cc1ccc(C)c(N2C(=O)C(=O)c3c(C)ccc(C)c32)c1	–	46.4 µM	–	68.3 µM	–
COc1ccc2c([nH]c3cc(O)c(C)cc32)c1CC=C(C)C	–	–	–	–	GI50 (LXFL 529 NSCLC): 8.63 µM; TGI (LXFL 529 NSCLC): > 25 µM; TGI (SNB-78 CNS): > 25 µM; GI50 (KM20L2 colon): 16.3 µM; TGI (KM20L2 colon): > 25 µM; GI50 (DMS 273 small cell lung): 8.43 µM; TGI (DMS 273 small cell lung): 16.8 µM
N=C(N)c1ccc(-c2ccc(-c3ccc(Cl)c(Cl)c3)o2)nc1	1.78 µM	3.25 µM	–	–	–
CCNC(=O)c1ccc2c(c1)nc(-c1ccc(Cl)cc1)n2-c1cc(C(C)(C)C)[nH]n1	1.09 µM	5.35 µM	3.99 µM	> 100 µM	–
NCC(=O)NC(CO)C(=O)O (centres undefined)	–	> 100 µM	–	> 100 µM	TGI (MDA-N): > 100 µM
CCOC1=C2C(C)(CCC3[C@@]4(C)C=CC(=O)C(C)(C)C4CC(O)[C@@]23C)C(c2ccoc2)C1=O (some centres undefined)	–	–	–	–	TGI (RXF-631 renal): 70.5 µM; TGI (HOP-18 NSCLC): > 100 µM; TGI (SNB-78 CNS): > 100 µM; TGI (KM20L2 colon): 32 µM; TGI (DMS 273 small cell lung): > 100 µM
CC#CC(=O)N[C@H]1CCCN(c2c(F)cc(C(N)=O)c3[nH]c(C)c(C)c23)C1	16.6 µM	34 µM	13.6 µM	44.3 µM	–
COc1cc(/C=N/Nc2ncnc3c2cnn3Cc2ccccc2)ccc1O	> 23.1 µM	> 25 µM	9.57 µM	> 25 µM	–
COc1cc(CCNc2nc3cc(N)cc(N)c3nc2-c2ccccc2)cc(OC)c1	1.77 µM	3.5 µM	1.74 µM	3.8 µM	–
CCCN(CCC)c1ccc(/C=N/NC(=O)c2cccnc2)cc1	3.63 µM	> 100 µM	28.1 µM	> 100 µM	–
COc1cc([N+](=O)[O-])c(OC)cc1-c1nc2n(c1/C(N)=N/C(=N)N)CCS2	> 100 µM	> 100 µM	86.8 µM	> 100 µM	–
CCCCC/C=C\C/C=C/CCCCCCCCNC(=O)Nc1ccc([N+](=O)[O-])cc1	8.21 µM	> 100 µM	22.7 µM	> 100 µM	–
C/C=C/C=C\C(=O)C1c2cccc(O)c2C(=O)c2c(O)cc(C)cc21 (centres undefined)	–	–	–	–	TGI (HOP-18 NSCLC): 3.32 µM; TGI (KM20L2 colon): 3.94 µM; TGI (DMS 273 small cell lung): 3.06 µM
CN1CCc2cc(O)c3cc2C1Cc1ccc(cc1)Oc1cc(ccc1O)CC1c2c(cc4c(c2O3)OCO4)CCN1C (centres undefined)	–	–	–	–	TGI (SNB-78 CNS): > 100 µM; TGI (KM20L2 colon): 45.9 µM; TGI (DMS 273 small cell lung): 86.2 µM
COc1cc(C(=O)Nc2cc(O)c(C/C=C(\C)CCC=C(C)C)c(O)c2)cc2c1O[C@]1(C)CC[C@@H](O)C(C)(C)[C@H]1C2	0.325 µM and 1.26 µM	13 µM	0.401 µM and 0.69 µM	4.88 µM	–
